# Assay results published in patent publication US20240409536A1, “COMPOUNDS AND METHODS FOR MODULATING SPLICING” (REMIX THERAPEUTICS INC., priority 2021, published 2024).
# Counter-ions that a name gives are not always drawn.
# Columns and labels:
# HTT mRNA [1] = experiment: Splicing RT-qPCR assay, HTT canonical (CJ) and alternative (AJ) junction mRNA; assay type: cell-based; settings: Homo sapiens, A673 or K562 cells, 24 hours; for IC50: decrease in canonical junction mRNA; for AC50: increase in alternative junction mRNA
# Procedure, shortened: (§1)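 A673 or K562 cells were treated 24 h at 37 °C with compounds in an 11-point 3-fold dilution series (top final 10 uM, DMSO ≤0.25%). Lysates were analysed by one-step RT-qPCR for canonical (CJ) and alternative-exon (AJ) junction isoforms, normalized to GAPDH, GUSB or PPIA.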
# MYB mRNA = experiment: Splicing RT-qPCR assay, MYB canonical (CJ) and alternative (AJ) junction mRNA; assay type: cell-based; settings: Homo sapiens, A673 or K562 cells, 24 hours; for IC50: decrease in canonical junction mRNA; for AC50: increase in alternative junction mRNA
# Procedure, shortened: as §1
# HTT mRNA [2] = experiment: Gene panel canonical junction qPCR assay, HTT CJ mRNA decrease; assay type: cell-based, human; settings: Homo sapiens, canonical junction qPCR, read-out: HTT IC50 (decrease in CJ mRNA levels)
# Procedure, shortened: (§2)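 A673 or K562 cells were treated with compound, and lysates underwent cDNA synthesis and qPCR with a CY5 5′-nuclease probe or primer spanning the canonical exon junction. ΔCt versus GAPDH, GUSB or PPIA was normalized to DMSO (2^(−ΔΔCt)), converted to percentage response and fitted four-parameter logistic for IC50.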
# SMN2 mRNA = experiment: Gene panel canonical junction qPCR assay, SMN2 CJ mRNA decrease; assay type: cell-based, human; settings: Homo sapiens, canonical junction qPCR, read-out: SMN2 IC50 (decrease in CJ mRNA levels)
# Procedure, shortened: as §2
Structure (SMILES),IC50 (HTT mRNA [1]) [µM],AC50 (HTT mRNA [1]) [µM],IC50 (MYB mRNA) [µM],AC50 (MYB mRNA) [µM],IC50 (HTT mRNA [2]) [µM],IC50 (SMN2 mRNA) [µM]
"Cc1cn2cc(NC(=O)c3ccc(N4CCNCC4)c4cccnc34)cc(F)c2n1 [Compound 165, N-{8-fluoro-2-methylimidazo[1,2-a]pyridin-6-yl}-5-(piperazin-1-yl)quinoline-8-carboxamide]",1 to 10,0.1 to 1,< 0.1,< 0.1,1 to 10,< 0.1
"Cc1cn2cc(NC(=O)c3ccc(N4CCNCC4)c4nnccc34)cc(F)c2n1 [Compound 166, N-(8-fluoro-2-methylimidazo[1,2-a]pyridin-6-yl)-8-(piperazin-1-yl)cinnoline-5-carboxamide 2,2,2-trifluoroacetate]",> 10,> 10,> 10,> 10,> 10,> 10
"Cc1cn2cc(NC(=O)c3ccc(N4CCNCC4)c4ccnnc34)cc(C#N)c2n1 [Compound 167, N-{8-cyano-2-methylimidazo[1,2-a]pyridin-6-yl}-5-(piperazin-1-yl)cinnoline-8-carboxamide trifluoroacetic acid salt]",1 to 10,> 10,0.1 to 1,0.1 to 1,1 to 10,< 0.1
"CCc1cc(NC(=O)c2ccc(N3CCNCC3)c3ccnnc23)nn2cc(C)nc12 [Compound 168, N-{8-ethyl-2-methylimidazo[1,2-b]pyridazin-6-yl}-5-(piperazin-1-yl)cinnoline-8-carboxamide trifluoroacetic acid salt]",> 10,> 10,1 to 10,1 to 10,> 10,0.1 to 1
"COc1ccc2c(N3CCNCC3)ccc(C(=O)Nc3cc(F)c4nc(C)cn4c3)c2n1 [Compound 169, N-{8-fluoro-2-methylimidazo[1,2-a]pyridin-6-yl}-2-methoxy-5-(piperazin-1-yl)quinoline-8-carboxamide]",1 to 10,1 to 10,< 0.1,< 0.1,1 to 10,< 0.1
"Cc1cn2cc(NC(=O)c3ccc(N4C[C@@H](C)N[C@@H](C)C4)c4ccnnc34)nc(C)c2n1 [Compound 172, N-{2,8-dimethylimidazo[1,2-a]pyrazin-6-yl}-5-[(3R,5S)-3,5-dimethylpiperazin-1-yl]cinnoline-8-carboxamide]",> 10,> 10,0.1 to 1,< 0.1,> 10,< 0.1
"COCCOc1ccc2c(N3CCNCC3)ccc(C(=O)Nc3cc(F)c4nc(C)cn4c3)c2n1 [Compound 173, N-{8-fluoro-2-methylimidazo[1,2-a]pyridin-6-yl}-2-(2-methoxyethoxy)-5-(piperazin-1-yl)quinoline-8-carboxamide]",> 10,> 10,< 0.1,< 0.1,> 10,< 0.1
"COc1cc(NC(=O)c2ccc(N3CCNCC3)c3ccnnc23)cn2cc(C)nc12 [Compound 176, N-{8-methoxy-2-methylimidazo[1,2-a]pyridin-6-yl}-5-(piperazin-1-yl)cinnoline-8-carboxamide trifluoroacetate]",> 10,> 10,0.1 to 1,0.1 to 1,> 10,< 0.1
"Cc1cn2cc(NC(=O)c3ccc(N4CCNCC4)c4ccnnc34)[nH]c(=O)c2n1 [Compound 177, N-{2-methyl-8-oxo-7H-imidazo[1,2-a]pyrazin-6-yl}-5-(piperazin-1-yl)cinnoline-8-carboxamide trifluoroacetic acid salt]",0.1 to 1,0.1 to 1,0.1 to 1,0.1 to 1,0.1 to 1,0.1 to 1
"Cc1nc(NC(=O)c2ccc(N3CCNCC3)c3ccnnc23)cc2cn(C)nc12 [Compound 178, N-{2,7-dimethylpyrazolo[3,4-c]pyridin-5-yl}-5-(piperazin-1-yl)cinnoline-8-carboxamide]",> 10,> 10,0.1 to 1,0.1 to 1,> 10,< 0.1
"COc1nc(NC(=O)c2ccc(N3CCNCC3)c3ccnnc23)cn2cc(C)nc12 [Compound 179, N-{8-methoxy-2-methylimidazo[1,2-a]pyrazin-6-yl}-5-(piperazin-1-yl)cinnoline-8-carboxamide]",1 to 10,1 to 10,< 0.1,< 0.1,1 to 10,< 0.1
"Cc1c(O)c(NC(=O)c2ccc(N3CCNCC3)c3ccnnc23)cc2cn(C)nc12 [Compound 181, N-(6-hydroxy-2,7-dimethylindazol-5-yl)-5-(piperazin-1-yl)cinnoline-8-carboxamide]",> 10,> 10,0.1 to 1,1 to 10,> 10,< 0.1
"Cc1cn2cc(NC(=O)c3ccc(N4CCNCC4)c4ccnnc34)cc(C(C)O)c2n1 (stereo not drawn) [Compound 182, N-[8-(1-hydroxyethyl)-2-methylimidazo[1,2-a]pyridin-6-yl]-5-(piperazin-1-yl)cinnoline-8-carboxamide trifluoroacetate]",> 10,> 10,> 10,> 10,> 10,1 to 10
"COc1cc2c(N3CCNCC3)ccc(C(=O)Nc3cc(F)c4nc(C)cn4c3)c2nn1 [Compound 183, N-{8-fluoro-2-methylimidazo[1,2-a]pyridin-6-yl}-3-methoxy-5-(piperazin-1-yl)cinnoline-8-carboxamide]",1 to 10,1 to 10,< 0.1,< 0.1,1 to 10,< 0.1
"Cc1cn2cc(NC(=O)c3ccc(N4C[C@@H](C)N[C@@H](C)C4)c4nccnc34)cc(F)c2n1 [Compound 186, 8-(3,5-dimethylpiperazin-1-yl)-N-{8-fluoro-2-methylimidazo[1,2-a]pyridin-6-yl}quinoxaline-5-carboxamide]",1 to 10,1 to 10,< 0.1,< 0.1,1 to 10,< 0.1
"Cc1cn2cc(NC(=O)c3ccc(N4CCN[C@@H](C)C4)c4nccnc34)cc(F)c2n1 [Compound 187, N-{8-fluoro-2-methylimidazo[1,2-a]pyridin-6-yl}-8-(3-methylpiperazin-1-yl) quinoxaline-5-carboxamide]",1 to 10,1 to 10,< 0.1,< 0.1,1 to 10,< 0.1
"Cc1cn2cc(NC(=O)c3ccc(N4CCC5(CCN5)CC4)c4nccnc34)cc(F)c2n1 [Compound 189, 8-{1,7-diazaspiro[3.5]nonan-7-yl}-N-{8-fluoro-2-methylimidazo[1,2-a]pyridin-6-yl}quinoxaline-5-carboxamide]",0.1 to 1,0.1 to 1,< 0.1,0.1 to 1,0.1 to 1,< 0.1
"CNC1CCN(c2ccc(C(=O)Nc3cc(F)c4nc(C)cn4c3)c3nccnc23)C1 (stereo not drawn) [Compound 190, N-{8-fluoro-2-methylimidazo[1,2-a]pyridin-6-yl}-8-[3-(methylamino)pyrrolidin-1-yl]quinoxaline-5-carboxamide]",1 to 10,1 to 10,0.1 to 1,< 0.1,1 to 10,< 0.1
